Data from patent publication US9149038B2, “4-amino-6-(heterocyclic)picolinates and 6-amino-2-(heterocyclic)pyrimidine-4-carboxylates and their use as herbicides” (Dow AgroSciences LLC, priority 2013, dated 2015).
Read-outs that look alike come from different tables or passages of the source.

Experiments:
[1] = test system: Key Broadleaf Weed and Crop Species; experiment: Post-Emergent Test II: postemergent herbicidal activity, visual rating after 14 d (Table 7); format: in vivo; settings: post-emergence, 336 h; for pest or weed control at 35 g/ha: 35 g ai/ha; for pest or weed control at 70 g/ha: 70 g ai/ha; for pest or weed control at 140 g/ha: 140 g ai/ha
From the text: (§1) Herbicidal evaluations were made visually on a scale of 0 to 100 where 0 represents no activity and 100 represents complete plant death.
(§2) Seeds or nutlets of the desired test plant species were planted in Sun Gro Metro-Mix® 360 planting mixture, which typically has a pH of 6.0 to 6.8 and an organic matter content of about 30 percent, in plastic pots with a surface area of 64 square centimeters (cm^2). When required to ensure good germination and healthy plants, a fungicide treatment and/or other chemical or physical treatment was applied. The plants were grown for 7-21 d in a greenhouse with an approximate 15 h photoperiod which was maintained at about 23-29° C. during the day and 22-28° C. during the night. Nutrients and water were added on a regular basis and supplemental lighting was provided with overhead metal halide 1000-Watt lamps as necessary. The plants were employed for testing when they reached the first or second true leaf stage.
(§3) A weighed amount, determined by the highest rate to be tested, of each test compound was placed in a 25 mL glass vial and was dissolved in 4 mL of a 97:3 v/v mixture of acetone and DMSO to obtain concentrated stock solutions. […] The concentrated stock solutions obtained were diluted with 20 mL of an aqueous mixture containing acetone, water, isopropyl alcohol, DMSO, Atplus 411F crop oil concentrate, and Triton® X-155 surfactant in a 48.5:39:10:1.5:1.0:0.02 v/v ratio to obtain spray solutions containing the highest application rates. Additional application rates were obtained by serial dilution of 12 mL of the high rate solution into a solution containing 2 mL of a 97:3 v/v mixture of acetone and DMSO and 10 mL of an aqueous mixture containing acetone, water, isopropyl alcohol, DMSO, Atplus 411F crop oil concentrate, and Triton X-155 surfactant in a 48.5:39:10:1.5:1.0:0.02 v/v ratio to obtain ½×, ¼×, ⅛× and 1/16× rates of the high rate. Compound requirements are based upon a 12 mL application volume at a rate of 187 liters per hectare (L/ha). Formulated compounds were applied to the plant material with an overhead Mandel track sprayer equipped with 8002E nozzles calibrated to deliver 187 L/ha over an application area of 0.503 square meters at a spray height of 18 inches (43 cm) above the average plant canopy height. Control plants were sprayed in the same manner with the solvent blank.
(§4) The treated plants and control plants were placed in a greenhouse as described above and watered by subirrigation to prevent wash-off of the test compounds. After 14 d, the condition of the test plants as compared with that of the untreated plants was determined visually and scored on a scale of 0 to 100 percent where 0 corresponds to no injury and 100 corresponds to complete kill and are presented as indicated in Table 4.

[2] = test system: Key Grass and Sedge Weeds as well as Grass Crops; experiment: Post-Emergent Test II: postemergent herbicidal activity, visual rating after 14 d (Table 8); format: in vivo; settings: post-emergence, 336 h; for pest or weed control at 35 g/ha: 35 g ai/ha; for pest or weed control at 70 g/ha: 70 g ai/ha; for pest or weed control at 140 g/ha: 140 g ai/ha
From the text: as §1, §2, §3, §4

[3] = lambsquarters (Chenopodium album), read-out: Visual Growth Reduction (%) 14 Days After Application CHEAL
[4] = oilseed rape, canola (Brassica napus), read-out: Visual Growth Reduction (%) 14 Days After Application BRSNN
[5] = redroot pigweed (Amaranthus retroflexus), read-out: Visual Growth Reduction (%) 14 Days After Application AMARE
[6] = sunflower (Helianthus annuus), read-out: Visual Growth Reduction (%) 14 Days After Application HELAN
[7] = velvetleaf (Abutilon theophrasti), read-out: Visual Growth Reduction (%) 14 Days After Application ABUTH
[8] = wild poinsettia (Euphorbia heterophylla), read-out: Visual Growth Reduction (%) 14 Days After Application EPHHL
[9] = giant foxtail (Setaria faberi), read-out: Visual Growth Reduction (%) 14 Days After Application SETFA
[10] = maize, corn (Zea mays), read-out: Visual Growth Reduction (%) 14 Days After Application ZEAMX
[11] = rice (Oryza sativa), read-out: Visual Growth Reduction (%) 14 Days After Application ORYSA
[12] = wheat, spring (Triticum aestivum), read-out: Visual Growth Reduction (%) 14 Days After Application TRZAS
[13] = yellow nutsedge (Cyperus esculentus), read-out: Visual Growth Reduction (%) 14 Days After Application CYPES

COC(=O)c1nc(-c2ccc3c(c2Cl)OC(F)(F)O3)cc(N)c1Cl [Compound 33]
0 to 29%: pest or weed control at 35 g/ha [1, 8] | pest or weed control at 35 g/ha [2, 9] | pest or weed control at 70 g/ha [2, 9] | pest or weed control at 35 g/ha [2, 11] | pest or weed control at 70 g/ha [2, 11] | pest or weed control at 140 g/ha [2, 11] | pest or weed control at 35 g/ha [2, 12] | pest or weed control at 70 g/ha [2, 12] | pest or weed control at 140 g/ha [2, 12]
75 to 84%: pest or weed control at 35 g/ha [1, 3] | pest or weed control at 70 g/ha [1, 3] | pest or weed control at 140 g/ha [1, 3] | pest or weed control at 70 g/ha [1, 5] | pest or weed control at 35 g/ha [1, 6] | pest or weed control at 70 g/ha [1, 7] | pest or weed control at 140 g/ha [1, 7] | pest or weed control at 140 g/ha [2, 10]
45 to 59%: pest or weed control at 140 g/ha [2, 9]
95 to 100%: pest or weed control at 140 g/ha [1, 5] | pest or weed control at 35 g/ha [2, 13] | pest or weed control at 140 g/ha [2, 13]
85 to 94%: pest or weed control at 70 g/ha [1, 6] | pest or weed control at 140 g/ha [1, 6]
60 to 74%: pest or weed control at 35 g/ha [1, 4] | pest or weed control at 70 g/ha [1, 4] | pest or weed control at 140 g/ha [1, 4] | pest or weed control at 35 g/ha [1, 5] | pest or weed control at 35 g/ha [1, 7] | pest or weed control at 70 g/ha [1, 8] | pest or weed control at 140 g/ha [1, 8] | pest or weed control at 35 g/ha [2, 10] | pest or weed control at 70 g/ha [2, 10]

Nc1cc(-c2ccc3c(c2Cl)OC(F)(F)O3)nc(C(=O)O)c1Cl [Compound 34]
0 to 29%: pest or weed control at 35 g/ha [2, 11] | pest or weed control at 70 g/ha [2, 11] | pest or weed control at 140 g/ha [2, 11] | pest or weed control at 35 g/ha [2, 13] | pest or weed control at 70 g/ha [2, 13] | pest or weed control at 140 g/ha [2, 13]
45 to 59%: pest or weed control at 35 g/ha [1, 7] | pest or weed control at 35 g/ha [1, 8] | pest or weed control at 35 g/ha [2, 12]
85 to 94%: pest or weed control at 140 g/ha [1, 4] | pest or weed control at 35 g/ha [1, 5] | pest or weed control at 70 g/ha [1, 6] | pest or weed control at 140 g/ha [1, 6]
75 to 84%: pest or weed control at 35 g/ha [1, 3] | pest or weed control at 70 g/ha [1, 3] | pest or weed control at 140 g/ha [1, 3] | pest or weed control at 35 g/ha [1, 4] | pest or weed control at 70 g/ha [1, 4] | pest or weed control at 35 g/ha [1, 6] | pest or weed control at 140 g/ha [1, 7] | pest or weed control at 35 g/ha [2, 9] | pest or weed control at 70 g/ha [2, 9] | pest or weed control at 140 g/ha [2, 9]
95 to 100%: pest or weed control at 70 g/ha [1, 5] | pest or weed control at 140 g/ha [1, 5]
60 to 74%: pest or weed control at 70 g/ha [1, 7] | pest or weed control at 70 g/ha [1, 8] | pest or weed control at 140 g/ha [1, 8] | pest or weed control at 35 g/ha [2, 10] | pest or weed control at 70 g/ha [2, 10] | pest or weed control at 140 g/ha [2, 10] | pest or weed control at 70 g/ha [2, 12] | pest or weed control at 140 g/ha [2, 12]

Cc1c(-c2cc(N)c(Cl)c(C(=O)O)n2)ccc2c1OC(F)(F)O2 [Compound 36]
30 to 44%: pest or weed control at 70 g/ha [1, 4] | pest or weed control at 70 g/ha [2, 9]
85 to 94%: pest or weed control at 140 g/ha [1, 6]
75 to 84%: pest or weed control at 35 g/ha [1, 6] | pest or weed control at 70 g/ha [1, 6]
95 to 100%: pest or weed control at 35 g/ha [1, 5] | pest or weed control at 70 g/ha [1, 5] | pest or weed control at 140 g/ha [1, 5]
45 to 59%: pest or weed control at 70 g/ha [1, 3] | pest or weed control at 140 g/ha [1, 3] | pest or weed control at 140 g/ha [1, 4] | pest or weed control at 140 g/ha [2, 9]
0 to 29%: pest or weed control at 35 g/ha [1, 3] | pest or weed control at 35 g/ha [1, 4] | pest or weed control at 35 g/ha [1, 7] | pest or weed control at 70 g/ha [1, 7] | pest or weed control at 140 g/ha [1, 7] | pest or weed control at 35 g/ha [1, 8] | pest or weed control at 70 g/ha [1, 8] | pest or weed control at 140 g/ha [1, 8] | pest or weed control at 35 g/ha [2, 9] | pest or weed control at 35 g/ha [2, 10] | pest or weed control at 70 g/ha [2, 10] | pest or weed control at 140 g/ha [2, 10] | pest or weed control at 35 g/ha [2, 11] | pest or weed control at 70 g/ha [2, 11] | pest or weed control at 140 g/ha [2, 11] | pest or weed control at 35 g/ha [2, 12] | pest or weed control at 70 g/ha [2, 12] | pest or weed control at 140 g/ha [2, 12] | pest or weed control at 35 g/ha [2, 13] | pest or weed control at 70 g/ha [2, 13] | pest or weed control at 140 g/ha [2, 13]

COC(=O)c1nc(-c2cc(OC)c3c(c2)OCO3)c(F)c(N)c1Cl [Compound 14]
85 to 94%: pest or weed control at 140 g/ha [1, 6]
75 to 84%: pest or weed control at 140 g/ha [1, 3]
0 to 29%: pest or weed control at 140 g/ha [1, 4] | pest or weed control at 140 g/ha [1, 5] | pest or weed control at 140 g/ha [1, 7] | pest or weed control at 140 g/ha [1, 8] | pest or weed control at 140 g/ha ([2]; barnyardgrass (Echinochloa crus-galli), read-out: Visual Growth Reduction (%) 14 Days After Application ECHCG) | pest or weed control at 140 g/ha [2, 9] | pest or weed control at 140 g/ha [2, 10] | pest or weed control at 140 g/ha [2, 11] | pest or weed control at 140 g/ha [2, 12] | pest or weed control at 140 g/ha [2, 13]
